From PMC10541411 (Nature Communications, 2023) come the findings set out here.

Test [1] has as its target T1, 53BP1^TT WT (Homo sapiens, UniProt Q12888). As to the kind of experiment: 1H-15N HSQC NMR titration of 15N-labeled wild-type 53BP1TT. Format: binding. Set-up: The tandem Tudor domain of 53BP1 (53BP1^TT, residues 1481–1603) was purified as previously described; made in house; host or cells: E. coli (only for the SAXS sample). The settings on record: 15N-labeled WT 53BP1TT. Here is the method: All NMR data were collected at 25 °C on a 700 MHz Bruker Avance III spectrometer equipped with a cryoprobe. Data were processed and analyzed with NMRPipe[54] and NMRViewJ[55],[56].
To probe chemical shift perturbations, ^1H-^15N HSQC spectra were acquired on the following samples: 0.2 mM ^15N-labeled 53BP1^TT WT and 53BP1^TT-PN in 25 mM sodium phosphate, pH 7.0, 1.5 mM NaN3, 0.3 mM DSS, 90% H2O/10% D2O, free and incrementally titrated with various non-labeled inhibitors (UNC1078, UNC1118, UNC2170, UNC2991, UNC3474), as well as with H4KC20me2 and p53K382me2 peptides. Chemical shift perturbations (Δδ) were calculated using the Eq. (1):1 Δδ=(ΔN/5)^2+ΔH^2 where ΔN and ΔH are the corresponding differences in ^15N and ^1H chemical shifts between the bound and free forms of 53BP1.
Target sequence in this assay (Q12888 1481-1603): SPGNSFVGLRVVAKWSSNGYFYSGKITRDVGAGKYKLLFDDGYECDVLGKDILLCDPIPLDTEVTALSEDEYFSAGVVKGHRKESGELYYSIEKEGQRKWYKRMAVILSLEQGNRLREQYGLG

Test [2] concerns WT 53BP1^FFR IRIF in U2OS cells. As to the kind of experiment: 53BP1FFR ionizing radiation-induced foci (IRIF) formation, immunofluorescence, WT. Format: cell-based, Homo Sapiens. The settings on record: 1 Gy X-ray, different concentrations of UNC3474. From the text: The foci-forming region (FFR; residues 1220–1711) of wild-type 53BP1 and mutants E1549P/D1550N (53BP1^FFR-PN) and E1549C/E1567C (53BP1^FFR-CC) were inserted into the retroviral vector POZ. The primers used to introduce the E1549P/D1550N mutations are: […] (forward) and […] (reverse). The primers used to introduce the E1549C/E1567C mutations are: […] (forward) and […] (reverse). The 53BP1^FFR constructs were stably expressed at a moderate level in U2OS cells. To probe the effect of UNC3474 on 53BP1^FFR IRIF formation, U2OS cells were grown on glass coverslips, pre-incubated for 1 h with various concentrations of UNC3474 and exposed to 1 Gy of X-ray radiation. After 1 h, the cells were fixed in 4% formaldehyde in PBS for 15 min at room temperature and blocked and permeabilized for 1 h in PBS containing 0.3% Triton X-100, 1% BSA, 10% fetal bovine serum. […]
Cell samples were subjected to z-stack scanning with a total depth of 5 μm to comprehensively capture all 53BP1^FFR and γH2A.X IRIF within the cell nuclei, which were fluorescently labeled with DAPI. […] To assess the quantification of 53BP1^FFR and γH2A.X foci per nuclei, a customized CellProfiler (version 3.0)[68] pipeline was employed. […]

Test [3] has as its target T1, 53BP1^TT WT. Description: Small angle X-ray scattering (SAXS). The arrangement: residues 1484-1603; made in house; host or cells: E. coli. Here is the method: SAXS measurements were performed at 10 °C and different concentrations (0.67, 1.33 and 2 mg/mL) of 53BP1^TT WT, free and in complex with 10-fold molar excess of UNC3474 or UNC1118, in 25 mM sodium phosphate, pH 7.5, 15 mM NaCl, as well as on control samples containing only the small molecule in the same buffer. SAXS data were collected at the Lawrence Berkeley National Laboratory SYBILS beamline 12.3.1 and analyzed using programs from the SAXS data analysis software ATSAS (version 2.4.2)[63],[64] including PRIMUS, GNOM, AUTOPOROD, GASBOR and CRYSOL. PRIMUS (version 3.0) was used for initial data processing. Radii of gyration (Rg) were calculated using the Guinier approximation. Distance distribution functions P(r) and maximum particle dimensions were computed using GNOM. Molecular volumes and weights were estimated using AUTOPOROD. Ab initio reconstructions of molecular envelopes were done using GASBOR 2.3i. CRYSOL was used to back calculate the scattering curves and determine the goodness of fit.
Supplementary Table 1 | SAXS reporting data.
Organism Homo Sapiens Homo Sapiens Homo Sapiens
Source E. coli E. coli E. coli
Solvent composition 25 mM sodium 25 mM sodium 25 mM sodium
phosphate, pH 7.5, 15 phosphate, pH 7.5, 15 phosphate, pH 7.5, 15
SAXS data collection parameters
Source SIBYLS beamline 12.3.1 at the Advanced Light Source […]
Beam geometry (size, sample-to-detector distance) 0.1 x 0.1 mm, 1.5 m
Method for monitoring radiation damage Varied exposure lengths were compared against one another
Exposure time, number of exposures 0.5 s, 1 s, 2 s exposures for each concentration
Sample configuration A 1 mm sample was placed between two mica windows in a
Software employed for SAXS data reduction, analysis and interpretation
SAS data reduction Subtraction using established programs at SIBYLS beamline 12.3.1
Basic analyses and merging of curves. PRIMUS from ATSAS 2.4.2
Shape/bead modeling GASBOR 2.3i
Target sequence in this assay (Q12888 1484-1603): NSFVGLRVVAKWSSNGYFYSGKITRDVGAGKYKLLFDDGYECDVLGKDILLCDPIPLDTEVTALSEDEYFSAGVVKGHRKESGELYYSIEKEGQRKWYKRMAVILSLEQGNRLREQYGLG

Regarding `CC(C)c1cccc(C(=O)NCCCNC(C)(C)C)c1` [UNC3474], the “changes in signal positions in the 1H-15N HSQC spectrum of 53BP1TT upon titration” value in test [1] is given as “slow exchange on the chemical shift time scale”. Further, the “WT 53BP1FFR IRIF formation” value in test [2] is reported as “inhibited in a dose-dependent manner”. Besides, the “Rg, P(r) analysis, of 53BP1TT complex” value in test [3] (10-fold molar excess of ligand, free 53BP1TT 18.85 ± 0.069) stood at 20.18 ± 0.038 Å. Moreover, in test [3] (10-fold molar excess of ligand, free 53BP1TT 19.1 ± 0.2), the “Rg, Guinier analysis, of 53BP1TT complex” value stood at 20.1 ± 0.1 Å. For the same compound, in test [3] (10-fold molar excess of ligand, free 53BP1TT 62.5), the “dmax, P(r) analysis, of 53BP1TT complex” value is given as 69.4 Å. Also, in test [3] (10-fold molar excess of ligand, free 53BP1TT 21822), the “Porod volume of 53BP1TT complex” value came to 37692 Å3. Moreover, the “changes in SAXS data upon complex formation” value in test [3] (10-fold molar excess of small molecule, 10 °C) is “agreed well with 53BP1^TT homodimerization”.
